Assay [1] addresses T1, purified human platelet fibrinogen receptor (GPIIb/IIIa) (Homo sapiens, UniProt P05106+P08514).
T1 construct: is isolated from human platelet lysates; from tissue
Nature of the assay: Test (b): GPIIb/IIIa ELISA, inhibition of biotinylated fibrinogen binding. The following applies: purified human platelet GPIIb/IIIa, ELISA; for IC50: read-out: Test (b): pIC50 (-log(IC50)), 50% inhibition of biotinylated fibrinogen binding to GPIIb/IIIa (converted). The method in brief:
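GPIIb/IIIa affinity-purified from human platelet lysates was coated on plates, blocked, then incubated 2 h at 30 °C with biotinylated fibrinogen ([…]) plus compound. Bound fibrinogen detected via streptavidin/biotinylated HRP and TMB, OD at 650 nm; pIC50 for 50% binding inhibition.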
(In general: In an ELISA, binding on a coated surface is turned into a signal by an enzyme label.)

Assay [2] deals with T2, human, citrated, platelet-rich plasma (Homo sapiens, UniProt P05106+P08514).
T2 construct: aggregating human, citrated, platelet-rich plasma; endogenous in cells; host or cells: human platelets in citrated platelet-rich plasma
Nature of the assay: Test (a): inhibition of ADP stimulated platelet aggregation (Born). The settings on record: ADP induced aggregation of human platelet-rich plasma; read-out: Test (a): pA2 value indicating potency of platelet aggregation inhibition (converted). It is filed as cell-based. The method in brief:
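ADP added to human citrated platelet-rich plasma to build aggregation dose-response curves, repeated with increasing test compound (generally 10-^5 M to 10-^10 M). pA2 derived from the 50% response value for ADP with vs. without compound, averaged over several concentrations.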

Structures can show the parent of a compound that is named as a salt.

T1 sequence (P08514 32-887 limits assumed): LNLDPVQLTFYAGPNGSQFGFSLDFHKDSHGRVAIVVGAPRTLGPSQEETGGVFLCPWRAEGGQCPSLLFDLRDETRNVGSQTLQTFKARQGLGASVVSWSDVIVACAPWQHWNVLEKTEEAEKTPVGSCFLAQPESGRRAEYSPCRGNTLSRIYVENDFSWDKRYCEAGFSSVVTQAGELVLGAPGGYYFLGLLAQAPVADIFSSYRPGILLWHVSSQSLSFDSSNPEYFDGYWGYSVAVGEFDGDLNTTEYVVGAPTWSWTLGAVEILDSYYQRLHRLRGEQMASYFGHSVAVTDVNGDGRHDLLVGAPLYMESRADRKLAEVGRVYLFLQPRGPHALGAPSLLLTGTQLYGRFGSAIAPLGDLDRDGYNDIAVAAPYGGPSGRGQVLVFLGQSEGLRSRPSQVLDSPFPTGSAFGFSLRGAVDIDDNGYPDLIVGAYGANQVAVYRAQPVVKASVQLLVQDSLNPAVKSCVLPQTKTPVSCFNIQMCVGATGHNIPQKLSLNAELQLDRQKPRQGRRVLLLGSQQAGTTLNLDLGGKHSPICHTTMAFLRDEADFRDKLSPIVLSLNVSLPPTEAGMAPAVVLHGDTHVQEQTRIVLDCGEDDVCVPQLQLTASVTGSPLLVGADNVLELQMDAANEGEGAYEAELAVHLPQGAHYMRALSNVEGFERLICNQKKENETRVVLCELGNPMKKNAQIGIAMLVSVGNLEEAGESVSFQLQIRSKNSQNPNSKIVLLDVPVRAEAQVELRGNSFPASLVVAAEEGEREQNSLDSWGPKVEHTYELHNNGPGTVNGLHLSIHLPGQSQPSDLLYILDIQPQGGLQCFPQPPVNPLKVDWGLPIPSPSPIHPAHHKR
T1 sequence (P08514 891-1039 limits assumed): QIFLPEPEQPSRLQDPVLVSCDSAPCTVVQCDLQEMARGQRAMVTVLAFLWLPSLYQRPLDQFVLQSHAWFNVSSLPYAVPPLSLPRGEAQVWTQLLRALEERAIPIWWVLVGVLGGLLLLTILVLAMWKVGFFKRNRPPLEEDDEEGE
T1 sequence (P05106 27-788): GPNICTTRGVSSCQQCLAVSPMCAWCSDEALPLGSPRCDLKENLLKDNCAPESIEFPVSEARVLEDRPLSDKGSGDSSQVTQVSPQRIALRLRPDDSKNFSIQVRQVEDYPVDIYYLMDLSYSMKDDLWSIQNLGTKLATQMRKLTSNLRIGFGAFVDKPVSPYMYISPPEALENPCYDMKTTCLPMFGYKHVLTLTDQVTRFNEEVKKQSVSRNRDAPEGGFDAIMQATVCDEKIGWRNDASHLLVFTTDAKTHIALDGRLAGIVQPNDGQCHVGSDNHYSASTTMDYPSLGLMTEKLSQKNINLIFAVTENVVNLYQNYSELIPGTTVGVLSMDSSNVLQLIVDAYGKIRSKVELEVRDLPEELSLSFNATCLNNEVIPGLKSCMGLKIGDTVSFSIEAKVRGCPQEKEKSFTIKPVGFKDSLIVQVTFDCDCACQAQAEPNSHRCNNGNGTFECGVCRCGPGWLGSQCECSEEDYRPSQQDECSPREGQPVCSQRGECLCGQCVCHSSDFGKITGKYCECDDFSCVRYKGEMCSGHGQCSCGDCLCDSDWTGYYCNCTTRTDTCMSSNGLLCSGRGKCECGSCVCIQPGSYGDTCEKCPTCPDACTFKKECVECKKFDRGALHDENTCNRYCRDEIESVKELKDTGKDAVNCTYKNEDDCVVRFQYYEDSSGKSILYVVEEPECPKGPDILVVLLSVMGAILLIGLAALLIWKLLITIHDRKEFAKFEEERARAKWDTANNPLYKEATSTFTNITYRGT
T2 sequence (P08514 32-887 limits assumed): as the sequence (P08514 32-887 limits assumed) above
T2 sequence (P08514 891-1039 limits assumed): as the sequence (P08514 891-1039 limits assumed) above
T2 sequence (P05106 27-788): as the sequence (P05106 27-788) above

Regarding `COC(=O)C(Oc1ccc(C(=O)CN2CCN(c3ccncc3)CC2)cc1)C(=O)OC` [Example 140, Dimethyl 4-[2-[4-(4-pyridyl)piperazin-1-yl]acetyl]phenoxymalonate], the IC50 in assay [1] is 501 nM. Besides, the Kb in assay [2] is 1580 nM.

For the compound `O=C(O)CCCOc1ccc(N2CCN(c3ccncc3)CC2)cc1` [Example 51, 4-[4-[4-(4-Pyridyl)piperazin-1-yl]phenoxy]butyric acid], the IC50 in assay [1] was 3.98 to 25.1 nM. The Kb in assay [2] is 12.6 to 100 nM.

On to `O=C(O)COc1ccc(NC(=O)C2CCN(c3ccncc3)CC2)cc1` [Example 164], for which the IC50 in assay [1] was 39.8 to 63.1 nM. Further, the Kb in assay [2] is 7.94 nM.

For the compound `O=C(O)COc1ccc(C(=O)NCC2CCN(c3ccncc3)CC2)cc1` [Example 168], the IC50 in assay [1] was 398 nM. For the same compound, the Kb in assay [2] was 794 nM.

With `CCCCS(=O)(=O)NC(CC1CCN(C(=O)CN2CCN(c3ccncc3)CC2)CC1)C(=O)O` (racemic) [Example 111], in assay [1], the IC50 was 6310 nM. In addition, the Kb in assay [2] was 5010 nM.

Regarding `COC(=O)COc1ccc(C(=O)C(C)(C)N2CCN(c3ccncc3)CC2)cc1` [Example 175, Methyl 4-[2-[4-(4-pyridyl)piperazin-1yl]-2,2-dimethylacetyl]-phenoxyacetate], the IC50 in assay [1] is 631 nM. The Kb in assay [2] was 1260 nM.

Consider `Cc1ccc(S(=O)(=O)NCC2CCN(C(=O)CN3CCN(c4ccncc4)CC3)CC2)cc1` [Example 222, N-[1-[2-[4-(4-Pyridyl)piperazin-1-yl]acetyl]piperidin-4-ylmethyl]-4-methylphenylsulphonamide], for which, in assay [1], the IC50 was 2510 nM. In addition, in assay [2], the Kb is 316 nM.

Take `O=C(O)CCNC(=O)c1ccc(N2CCN(c3ccncc3)CC2)cc1` [Example 57, 3-[4-[4-(4-Pyridyl)piperazin-1-yl]]benzamidopropionic acid]: in assay [1], the IC50 was 25.1 nM. Besides, the Kb in assay [2] was 25.1 nM.

As to `Cc1ccc(S(=O)(=O)NCc2ccc(CCN3CCN(c4ccncc4)CC3)cc2)cc1` [Example 186], in assay [1], the IC50 is 1260 nM. Besides, the Kb in assay [2] is 5010 nM.

Consider `O=C(O)[C@H](Cc1ccc(OCCC2CCN(c3ccncc3)CC2)cc1)NS(=O)(=O)Cc1ccccc1` [Example 89, 2-S-(Benzylsulphonylamino)-3-[4-[2-[1-(4-pyridyl)piperidin-4-yl]ethoxy]phenyl]propionic acid], for which the IC50 in assay [1] is 2 nM. Besides, the Kb in assay [2] is 39.8 nM.

As for `COC(=O)COc1ccc(NC(=O)C2CCN(c3ccncc3)CC2)cc1` [Example 163, Methyl 4-[[1-(4-pyridyl)piperidin-4-yl]carboxamido]phenoxyacetate, hydrochloride], the IC50 in assay [1] is 251 nM. In addition, the Kb in assay [2] is 398 nM.

`O=C(O)COc1ccc(C(=O)CN2CCN(c3ccncc3)CC2)cc1` [Example 2]: in assay [1], the “Test (b): pIC50 (-log(IC50)), 50% inhibition of biotinylated fibrinogen binding to GPIIb/IIIa” value stood at 7.6 and the IC50 was 25.1 nM. Besides, in assay [2], the Kb was 50.1 to 79.4 nM.

Consider `CC(C)(C)OC(=O)COc1ccc(C(=O)CN2CCN(c3ccncc3)CC2)cc1` [Example 138, tert-Butyl 4-[2-[4-(4-pyridyl)piperazin-1-yl]acetyl]-phenoxyacetate], for which the IC50 in assay [1] was 12600 nM. In addition, in assay [2], the Kb is 10000 nM.

On to `NC(=O)COc1ccc(C(=O)CN2CCN(c3ccncc3)CC2)cc1` [Example 142, 4-[2-[4-(4-Pyridyl)piperazin-1-yl]acetyl]phenoxyacetamide], for which the IC50 in assay [1] is 5010 nM. The Kb in assay [2] is 5010 nM.

On to `CCOC(=O)Cc1ccc(C(=O)CN2CCN(c3ccncc3)CC2)cc1` [Example 14, Ethyl 4-[2-[4-(4-pyridyl)piperazin-1-yl]acetyl]phenylacetate], for which the IC50 in assay [1] was above 100000 nM. For the same compound, the Kb in assay [2] was 7940 nM.

As to `COC(=O)COc1ccc(C(=O)CN2CCN(c3ccnc4ccccc34)CC2)cc1` [Example 43, Methyl 4-[2-[4-(4-quinolinyl)piperazin-1-yl]acetyl]phenoxyacetate], in assay [1], the IC50 was 3160 nM. The Kb in assay [2] is 39800 nM.

Source of the values: patent publication US5750754A, “Heterocyclic compounds” (Zeneca Limited, priority 1993, dated 1998).
